The test system of one experiment is Rat hearts. Nature of the experiment: Cardiac activity: rat hearts perfused by the Langendorff procedure. Conditions: for Emax: reference standard, maximum response, no dose given. As for the experimental part:
Rat hearts were perfused by the Langendorff procedure as follows:- • Hearts were dissected free within 30 seconds of death and reverse perfused via the aorta and coronary vessels with Krebs-Ringer bicarbonate solution (pH 7.4, 37°C) gassed with 95% oxygen:5% carbon dioxide at a flow rate between 8-12 cm^3/minute. Responses were observed after injection of drug dissolved in isotonic saline into the perfusion media.
Results are expressed as a percentage of the maximum response due to salbutamol.

The test system of experiment [1] is Female CFLP mice. Description: Effect on energy expenditure and food intake of mice. The format is in vivo. Conditions: Mus musculus; for response vs control in vivo at 23.1 mg/kg: 23.1 mg/kg po.
Procedure: Female CFLP mice each weighing approximately 24 g, were given food and water ad lib before and during the experiment. The compounds were dissolved in water by addition of one mole of hydrochloric acid per mole of compound and these solutions were administered orally to each of 12 mice. A further 12 mice were dosed orally with water. The mice were placed in boxes through which air was drawn and the oxygen content of the air leaving the boxes was measured. […] The food intake of the mice was measured over this same period of 21 hours. The results are expressed as a percentage of the mean food intake or rate of energy expenditure of the mice dosed with water.
Experiment [2] relates to Female CFLP mice. Description: Anti-hyperglycaemic activity: subcutaneous glucose load in fasted mice, area under blood glucose curve. The format is in vivo. Conditions: glucose 1 g/kg sc, 2 hour period, vs water control. As for the experimental part: Female CFLP mice, each weighing approximately 25 g, were fasted for 24 hours prior to the study. The compounds under study were administered orally as an aqueous solution to each of 6 mice. 6 mice were given water as a control. 30 minutes later a blood sample (20 µl) was obtained from the tail for the analysis of blood glucose. Immediately after taking this blood sample, glucose (1 g/kg body weight) was administered subcutaneously to each mouse. Blood samples were then obtained from each mouse at 30 minute intervals for 120 minutes.
Compounds that produced a significant (P<0.05) reduction of blood glucose, compared with control mice given water, at any time interval, were considered active. The area under the blood glucose curve over the 2 hour period after the administration of the glucose was calculated for each compound and compared with the value for control animals.

The test system of another experiment is genetically obese mice. Description: Anti-obesity activity: carcass composition after 28 days of daily dosing. Conditions: 13.1 mg/kg p.o. daily for 28 days, Control 19.13. The format is in vivo. As for the experimental part: The compounds were administered by oral gavage in water or carboxymethyl-cellulose suspension to genetically obese mice daily for 28 days. At the end of the time the carcass composition was determined. The results obtained were as follows:-

The mark [3] stands for this setting: 10 μg added to perfusate, perfused rat heart, read-out: Heart Rate.
Setting [4] is: 10 μg added to perfusate, perfused rat heart, read-out: Heart Tension.
[5] abbreviates: po, 21 h, read-out: Mean Energy Expenditure (%).
Where [6] appears, read: po, 21 h, read-out: Mean Food Intake (%).
The mark [7] stands for this setting: Rattus norvegicus, read-out: Heart Rate.
The mark [8] stands for this setting: Rattus norvegicus, read-out: Heart Tension.
Setting [9] is: 30 μg added to perfusate, perfused rat heart, read-out: Heart Rate.
The mark [10] stands for this setting: 30 μg added to perfusate, perfused rat heart, read-out: Heart Tension.

Where a name gives a salt, the structure may show the parent alone. Read-outs that look alike come from different tables or passages of the source.

For `CNCCOc1ccc(CC(C)NCC(O)c2cccc(C(F)(F)F)c2)cc1` (stereo not drawn) [Example 1, N-[2-(4-(2-Methylaminoethoxy)phenyl)-1-methylethyll-2-hydroxy-2-(3-trifluoromethylphenyl)ethanaminedihydrochloride], the figures for the Emax at 0.01 mg in the experiment on Rat hearts (setting [3]) and with Rat hearts (setting [4]) were 0% and 7%, respectively. Further, the response vs control in vivo at 26.1 mg/kg came to 129% with Female CFLP mice [1] (setting [5]) and 98% in the experiment on Female CFLP mice [1] (setting [6]). Besides, in the experiment with Female CFLP mice [2] (1 μ moles/kg po), the “Reduction in area under Blood glucose curve (%)” value (“Reduction in area … (%)” below) was 33%.
With `CNCCOc1ccc(CC(C)NCC(O)c2cccc(C(F)(F)F)c2)cc1` (stereo not drawn) [Example 1a, N-[2-(4-(2-Methylaminoethoxy)phenyl)-1-methylethyll-2-hydroxy-2-(3-trifluoromethylphenyl)ethanaminedihydrochloride], the “g Lipid/Mouse Treated” value in the experiment on genetically obese mice turned out to be 12.54 g Lipid/Mouse. The response vs control in vivo at 2.61 mg/kg with Female CFLP mice [1] (setting [5]) came out at 120%; in the experiment with Female CFLP mice [1] (setting [6]) it was 94%.
Consider `CC(Cc1ccc(OCCN(C)C)cc1)NCC(O)c1cccc(C(F)(F)F)c1.Cl.Cl` (stereo not drawn) [Example 2, N-[2-(4-(2-Dimethylaminoethoxy)phenyl)-1-methylethyl]-2-hydroxy-2-(3-trifluoromethylphenyl)ethanamine dihydrochloride], for which the Emax at 0.01 mg in the experiment on Rat hearts (setting [7]) and in the experiment on Rat hearts (setting [8]) was 0% each time. Besides, the figures for the response vs control in vivo at 26.9 mg/kg in the experiment with Female CFLP mice [1] (setting [5]) and in the experiment with Female CFLP mice [1] (setting [6]) were 127% and 98%, respectively. In addition, the “Reduction in area … (%)” value in the experiment with Female CFLP mice [2] (5 μ moles/kg po) is 49%.
In the case of `CC(Cc1ccc(OCCNS(C)(=O)=O)cc1)NCC(O)c1cccc(C(F)(F)F)c1` (stereo not drawn) [Example 3, N-[2-(4-(2-Methylsulphonylaminoethoxy)phenyl)-1-methylethyl]-2-hydroxy-2-(3-trifluoromethylphenyl)ethanamine], the results for the Emax at 0.01 mg in the experiment with Rat hearts (setting [3]) and in the experiment with Rat hearts (setting [4]) were 38% and 4%, respectively. Also, the response vs control in vivo at 25.6 mg/kg in the experiment with Female CFLP mice [1] (setting [5]) was determined as 125%; in the experiment with Female CFLP mice [1] (setting [6]), 83%. For the same compound, the “Reduction in area … (%)” value in the experiment on Female CFLP mice [2] (1 μ moles/kg po) came to 56%.
For `Br.Br.CNCCOc1ccc(CC(C)NCC(O)c2ccccc2F)cc1` (stereo not drawn) [Example 7, N-[2-(4-(2-Methylaminoethoxy)phenyl)-1-methylethyl]-2-hydroxy-2-(2-fluorophenyl)ethanamine dihydrobromide], the Emax at 0.01 mg with Rat hearts (setting [7]) came to 73%; with Rat hearts (setting [8]), 18%. Also, the values for the response vs control in vivo at 28.3 mg/kg in the experiment with Female CFLP mice [1] (setting [5]) and in the experiment with Female CFLP mice [1] (setting [6]) were 125% and 109%, respectively. Moreover, the “Reduction in area … (%)” value in the experiment on Female CFLP mice [2] (1 μ moles/kg po) was 33%.
As to `CNCCOc1ccc(CC(C)NCC(O)c2cccc(F)c2)cc1` (stereo not drawn) [Example 9, N-[2-(4-(2-Methylaminoethoxy)phenyl-1-methylethyl]-2-hydroxy-2-(3-fluorophenyl)ethanaminedihydrobromide], the values for the Emax at 0.01 mg in the experiment with Rat hearts (setting [3]) and in the experiment with Rat hearts (setting [4]) were 73% and 53%, respectively. The response vs control in vivo at 28.3 mg/kg in the experiment with Female CFLP mice [1] (setting [5]) stood at 129%; with Female CFLP mice [1] (setting [6]), 109%. The “Reduction in area … (%)” value with Female CFLP mice [2] (1 μ moles/kg po) is 39%.
Regarding `CNCCOc1ccc(CC(C)NCC(O)c2ccccc2)cc1` (stereo not drawn) [Example 10, N-[2-(4-(2-Methylaminoethoxy)phenyl-1-methylethyl]-2-hydroxy-2-phenylethanaminedihydrobromide], the Emax at 0.01 mg with Rat hearts (setting [3]) turned out to be 14%; in the experiment with Rat hearts (setting [4]) it was 33%. Moreover, the response vs control in vivo at 27.3 mg/kg in the experiment on Female CFLP mice [1] (setting [5]) was 118%; with Female CFLP mice [1] (setting [6]), 89%. Moreover, the “Reduction in area … (%)” value with Female CFLP mice [2] (1 μ moles/kg po) is 30%.
On to `CNCCOc1ccc(CC(C)NCC(O)c2cccc(Cl)c2F)cc1.Cl.Cl` (stereo not drawn) [Example 11, N-[2-(4-(2-Methylaminoethoxy)phenyl)-1-methylethyl]-2-hydroxy-2-(2-fluoro-3-chlorophenyl)ethanamine dihydrochloride], for which the Emax at 0.01 mg in the experiment on Rat hearts (setting [7]) amounted to 45%; in the experiment with Rat hearts (setting [8]) it was 60%. The response vs control in vivo at 25.3 mg/kg in the experiment with Female CFLP mice [1] (setting [5]) worked out at 148%; in the experiment with Female CFLP mice [1] (setting [6]), 79%. The “Reduction in area … (%)” value with Female CFLP mice [2] (1 μ moles/kg po) came out at 64%.
Regarding `CC(Cc1ccc(OCCNCc2ccccc2)cc1)NCC(O)c1cccc(C(F)(F)F)c1` (stereo not drawn) [Example 18, N-[2-(4-(2-Benzylaminoethoxy)phenyl)-1-methylethyl]-2-hydroxy-2-(3-trifluoromethylphenyl)ethanamine], the Emax at 0.03 mg in the experiment on Rat hearts (setting [9]) was 12%; in the experiment with Rat hearts (setting [10]), 7%. Further, the results for the response vs control in vivo at 26.3 mg/kg in the experiment with Female CFLP mice [1] (setting [5]) and in the experiment on Female CFLP mice [1] (setting [6]) were 131% and 80%, respectively. Moreover, the “Reduction in area … (%)” value in the experiment on Female CFLP mice [2] (2.5 μ moles/kg po) is 50%.
With `CCOC(=O)NCCOc1ccc(CC(C)NCC(O)c2cccc(C(F)(F)F)c2)cc1` (stereo not drawn) [Example 20, N-[2-(4-(2-Ethoxycarbonylaminoethoxy)phenyl)-1-methylethyl]-2-hydroxy-2-(3-trifluoromethylphenyl)-ethanamine], the values for the Emax at 0.03 mg in the experiment with Rat hearts (setting [9]) and with Rat hearts (setting [10]) were 12% and 0%, respectively. The figures for the response vs control in vivo at 25.3 mg/kg in the experiment on Female CFLP mice [1] (setting [5]) and in the experiment on Female CFLP mice [1] (setting [6]) were 115% and 86%, respectively. Besides, the “Reduction in area … (%)” value with Female CFLP mice [2] (2.5 μ moles/kg po) is listed as 36%.
Regarding `CC(=O)NCCOc1ccc(CC(C)NCC(O)c2cccc(C(F)(F)F)c2)cc1` (stereo not drawn) [Example 21, N-[2-(4-(2-Acetylaminoethoxy)phenyl)-1-methylethyl]-2-hydroxy-2-(3-trifluoromethylphenyl)ethanamine], the Emax at 0.03 mg with Rat hearts (setting [9]) turned out to be 22%; in the experiment on Rat hearts (setting [10]), 24%. For the same compound, the response vs control in vivo at 23.6 mg/kg turned out to be 119% with Female CFLP mice [1] (setting [5]) and 102% in the experiment on Female CFLP mice [1] (setting [6]). For the same compound, the “Reduction in area … (%)” value in the experiment with Female CFLP mice [2] (2.5 μ moles/kg po) was 44%.
For `CNCCOc1ccc(CC(C)NCC(O)c2cccc(Cl)c2)cc1.Cl.Cl` (stereo not drawn) [Example 22, N-[2-(4-(2-Methylaminoethoxy)phenyl)-1-methylethyl]-2-hydroxy-2-(3-chlorophenyl)ethanamine dihydrochloride], the Emax at 0.03 mg with Rat hearts (setting [7]) was determined as 57%; with Rat hearts (setting [8]), 22%. Also, the values for the response vs control in vivo at 24.3 mg/kg with Female CFLP mice [1] (setting [5]) and with Female CFLP mice [1] (setting [6]) were 124% and 84%, respectively. Also, the “Reduction in area … (%)” value in the experiment on Female CFLP mice [2] (1 μ moles/kg po) is reported as 43%.
As to `CC(COc1ccc(CC(C)NCC(O)c2cccc(C(F)(F)F)c2)cc1)NCc1ccccc1` (stereo not drawn) [Example 31, N-[2-(4-(2-Benzylaminopropoxy)phenyl)-1-methylethyl]-2-hydroxy-2-(3-trifluoromethylphenyl)ethanamine], the response vs control in vivo at 24.3 mg/kg was 100% with Female CFLP mice [1] (24.3 mg/kg po, mice, 21 hours after dosing, % of mice dosed with water, read-out: Mean Energy Expenditure (%)) and 59% in the experiment with Female CFLP mice [1] (24.3 mg/kg po, mice, 21 hours after dosing, % of mice dosed with water, read-out: Mean Food Intake (%)). The “Reduction in area … (%)” value in the experiment on Female CFLP mice [2] (50 μ moles/kg po) came to 45%.
Turning to `CN(C)CCOc1ccc(CCC(C)(C)NCC(O)c2ccccc2)cc1.Cl.Cl` (stereo not drawn) [Example 35, N-[3-(4-(2-Dimethylaminoethoxy)phenyl)-1,1-dimethylpropyl]-2-hydroxy-2-phenylethanamine dihydrochloride], the response vs control in vivo at 23.1 mg/kg in the experiment with Female CFLP mice [1] (mice, 21 hours after dosing, % of mice dosed with water, read-out: Mean Energy Expenditure (%)) was 95%; with Female CFLP mice [1] (mice, 21 hours after dosing, % of mice dosed with water, read-out: Mean Food Intake (%)), 83%. Also, in the experiment with Female CFLP mice [2] (250 μ moles/kg po), the “Reduction in area … (%)” value stood at 18%.
`CCN(CC)CCOc1ccc(CC(C)NCC(O)c2cccc(C(F)(F)F)c2)cc1.O=C(O)/C=C/C(=O)O` (stereo not drawn) [Example 36, N-[2-(4-(2-Diethylaminoethoxy)phenyl)-1-methylethyl]-2-hydroxy-2-(3-trifluoromethylphenyl)ethanamine fumarate]: the response vs control in vivo at 22.7 mg/kg was 132% in the experiment with Female CFLP mice [1] (setting [5]) and 78% in the experiment with Female CFLP mice [1] (setting [6]). Besides, the “Reduction in area … (%)” value in the experiment with Female CFLP mice [2] (50 μ moles/kg po) amounted to 56%.
As to `CC(Cc1ccc(OCC#N)cc1)NCC(O)c1cccc(Cl)c1` (stereo not drawn) [Example 38, N-[2-(4-Cyanomethoxylphenyl)-1-methylethyl]-2-hydroxy-2-(3-chlorophenyl)ethanamine], the results for the response vs control in vivo at 19.2 mg/kg in the experiment with Female CFLP mice [1] (setting [5]) and in the experiment on Female CFLP mice [1] (setting [6]) were 132% and 81%, respectively. In addition, in the experiment with Female CFLP mice [2] (0.5 μ moles/kg po), the “Reduction in area … (%)” value is reported as 63%.
As to `CC(C)(C)NCC(O)c1ccc(O)c(CO)c1` (stereo not drawn) [Salbutamol, reference compound], the Emax is 100% in the experiment on Rat hearts (perfused rat heart, read-out: Heart Rate) and 100% in the experiment with Rat hearts (perfused rat heart, read-out: Heart Tension).

For the origin of these results see patent publication EP0070133B1, “Secondary phenylethanol amines, processes for their preparation and their pharmaceutical application” (priority 1981, dated 1983).
